Earlier results, collected in PubChem BioAssay AID1259409 (Chemical Carcinogenesis Research Information System (CCRIS), 2018).
Where “and” joins values, the source holds several entries; their conditions need not be identical. Equal entries are not always repeated.

Tested on: rodent chemically induced tumor inhibition, incidence and multiplicity
Experiment: CCRIS tumor inhibitor studies
Conditions: Promoter: NONE USED

CCOc1ccc2c(c1)C(C)=CC(C)(C)N2
tumour outcome (control, treated, inhibition, significance) (Carcinogen: 1,2-DIMETHYLHYDRAZINE, 540-73-8, Dose [Inhibitor]: 0, 0.8% IN DIET BEGINNING 1 WK POST LAST CARCINOGEN DOSE AND CONTINUING FOR 36 WK (STUDY DURATION: 40 WK), Route [Inhibitor]: ORAL, Species: RAT, Strain/Sex: F344/MALE, Target Tissue: Type of Lesion: COLON: ADENOMA, Dose [Carcinogen]: 20 MG/KG 1/WK FOR 4 WK): 1/20 (5%), 4/18 (22%), -340%, not calculated
tumour outcome (control, treated, inhibition, significance) (Carcinogen: 1,2-DIMETHYLHYDRAZINE, 540-73-8, Dose [Inhibitor]: 0, 0.8% IN DIET BEGINNING 1 WK POST LAST CARCINOGEN DOSE AND CONTINUING FOR 36 WK (STUDY DURATION: 40 WK), Route [Inhibitor]: ORAL, Species: RAT, Strain/Sex: F344/MALE, Target Tissue: Type of Lesion: COLON: CARCINOMA, Dose [Carcinogen]: 20 MG/KG 1/WK FOR 4 WK): 6/20 (30%), 7/18 (39%), -30%, not calculated
tumour outcome (control, treated, inhibition, significance) (Carcinogen: 7,12-DIMETHYLBENZ[A]ANTHRACENE, 57-97-6, Dose [Inhibitor]: 200 MG IN 1 ML OLIVE OIL ONCE (STUDY DURATION: 18 WK), Route [Inhibitor]: GAVAGE, Species: RAT, Strain/Sex: SPRAGUE-DAWLEY/FEMALE, Target Tissue: Type of Lesion: MAMMARY GLAND: TUMOR, Dose [Carcinogen]: 12 MG IN 1 ML OLIVE OIL ADMINISTERED 1 HR AFTER INHIBITOR): 27/34 (79%), 2/17 (12%), 85%, p<0.01
tumour outcome (control, treated, inhibition, significance) (Carcinogen: CIPROFIBRATE, 52214-84-3, Dose [Inhibitor]: 0.5% IN DIET FOR 60 WK (STUDY DURATION: 60 WK), Route [Inhibitor]: ORAL, Species: RAT, Strain/Sex: F344/MALE, Target Tissue: Type of Lesion: LIVER: TUMOR, Dose [Carcinogen]: 10 MG/KG BODY WEIGHT IN DIET SIMULTANEOUSLY WITH INHIBITOR FOR 60 WK): 21/25 (84%), 7/24 (29%), 65%, p<0.005 and 22/25 (88%), 4/24 (17%), 81%, p<0.005
tumour outcome (control, treated, inhibition, significance) (Carcinogen: N-BIS(2-HYDROXYPROPYL)NITROSAMINE, 53609-64-6, Dose [Inhibitor]: 0, 0.8% IN DIET FOR 30 WK BEGINNING POST CARCINOGEN TREATMENT (STUDY DURATION: 32 WK0, Route [Inhibitor]: ORAL, Species: RAT, Strain/Sex: F344/MALE, Target Tissue: Type of Lesion: THYROID: ADENOMA, Dose [Carcinogen]: 0.1% IN DRINKING WATER FOR 2 WK): 1/20 (5%), 19/20 (95%), -1800%, p<0.001
tumour outcome (control, treated, inhibition, significance) (Carcinogen: N-BIS(2-HYDROXYPROPYL)NITROSAMINE, 53609-64-6, Dose [Inhibitor]: 0, 0.8% IN DIET FOR 30 WK BEGINNING POST CARCINOGEN TREATMENT (STUDY DURATION: 32 WK), Route [Inhibitor]: ORAL, Species: RAT, Strain/Sex: F344/MALE, Target Tissue: Type of Lesion: BLADDER: ADENOMA, Dose [Carcinogen]: 0.1% IN DRINKING WATER FOR 2 WK): 5%, 5%, 0%, not significant
tumour outcome (control, treated, inhibition, significance) (Carcinogen: N-BIS(2-HYDROXYPROPYL)NITROSAMINE, 53609-64-6, Dose [Inhibitor]: 0, 0.8% IN DIET FOR 30 WK BEGINNING POST CARCINOGEN TREATMENT (STUDY DURATION: 32 WK), Route [Inhibitor]: ORAL, Species: RAT, Strain/Sex: F344/MALE, Target Tissue: Type of Lesion: KIDNEY: TUMOR, Dose [Carcinogen]: 0.1% IN DRINKING WATER FOR 2 WK): 10%, 30%, -200%, not calculated
tumour outcome (control, treated, inhibition, significance) (Carcinogen: N-BIS(2-HYDROXYPROPYL)NITROSAMINE, 53609-64-6, Dose [Inhibitor]: 0, 0.8% IN DIET FOR 30 WK BEGINNING POST CARCINOGEN TREATMENT (STUDY DURATION: 32 WK), Route [Inhibitor]: ORAL, Species: RAT, Strain/Sex: F344/MALE, Target Tissue: Type of Lesion: LUNG: ADENOMA, Dose [Carcinogen]: 0.1% IN DRINKING WATER FOR 2 WK): 100%, 95%, 5%, not calculated
tumour outcome (control, treated, inhibition, significance) (Carcinogen: N-BIS(2-HYDROXYPROPYL)NITROSAMINE, 53609-64-6, Dose [Inhibitor]: 0, 0.8% IN DIET FOR 30 WK BEGINNING POST CARCINOGEN TREATMENT (STUDY DURATION: 32 WK), Route [Inhibitor]: ORAL, Species: RAT, Strain/Sex: F344/MALE, Target Tissue: Type of Lesion: LUNG: CARCINOMA, Dose [Carcinogen]: 0.1% IN DRINKING WATER FOR 2 WK): 45%, 15%, 67%, p<0.05
tumour outcome (control, treated, inhibition, significance) (Carcinogen: N-BIS(2-HYDROXYPROPYL)NITROSAMINE, 53609-64-6, Dose [Inhibitor]: 0, 0.8% IN DIET FOR 30 WK BEGINNING POST CARCINOGEN TREATMENT (STUDY DURATION: 32 WK), Route [Inhibitor]: ORAL, Species: RAT, Strain/Sex: F344/MALE, Target Tissue: Type of Lesion: THYROID: ADENOMA, Dose [Carcinogen]: 0.1% IN DRINKING WATER FOR 2 WK): 5%, 95%, -1800%, p<0.001
tumour outcome (control, treated, inhibition, significance) (Carcinogen: N-BIS(2-HYDROXYPROPYL)NITROSAMINE, 53609-64-6, Dose [Inhibitor]: 0, 0.8% IN DIET FOR 30 WK BEGINNING POST CARCINOGEN TREATMENT (STUDY DURATION: 32 WK), Route [Inhibitor]: ORAL, Species: RAT, Strain/Sex: F344/MALE, Target Tissue: Type of Lesion: THYROID: CARCINOMA, Dose [Carcinogen]: 0.1% IN DRINKING WATER FOR 2 WK): 20%, 50%, -150%, not calculated
outcome (Carcinogen: N-ETHYL-N-HYDROXYETHYLNITROSAMINE, 13147-25-6, Dose [Inhibitor]: 0.8% IN DIET BEGINNING 1 WK AFTER LAST CARCINOGEN TREATMENT AND CONTINUING THROUGH DURATION OF STUDY (STUDY DURATION: 32, Route [Inhibitor]: ORAL, Species: RAT, Strain/Sex: F344/MALE, Target Tissue: Type of Lesion: KIDNEY: ADENOCARCINOMA, Dose [Carcinogen]: 0.1% IN DRINKING WATER FOR 2 WK AT BEGINNING OF STUDY): 0/23 (0%), 3/27 (11%), -11%, not significant
tumour outcome (control, treated, inhibition, significance) (Carcinogen: N-ETHYL-N-HYDROXYETHYLNITROSAMINE, 13147-25-6, Dose [Inhibitor]: 0.8% IN DIET BEGINNING 1 WK AFTER LAST CARCINOGEN TREATMENT AND CONTINUING THROUGH DURATION OF STUDY (STUDY DURATION: 32, Route [Inhibitor]: ORAL, Species: RAT, Strain/Sex: F344/MALE, Target Tissue: Type of Lesion: KIDNEY: ADENOMA, Dose [Carcinogen]: 0.1% IN DRINKING WATER FOR 2 WK AT BEGINNING OF STUDY): 5/23 (22%), 17/27 (63%), -186%, p<0.001
tumour outcome (control, treated, inhibition, significance) (Carcinogen: N-ETHYL-N-HYDROXYETHYLNITROSAMINE, 13147-25-6, Dose [Inhibitor]: 0.8% IN DIET BEGINNING 1 WK AFTER LAST CARCINOGEN TREATMENT AND CONTINUING THROUGH DURATION OF STUDY (STUDY DURATION: 32, Route [Inhibitor]: ORAL, Species: RAT, Strain/Sex: F344/MALE, Target Tissue: Type of Lesion: LIVER: HEPATOCELLULAR CARCINOMA, Dose [Carcinogen]: 0.1% IN DRINKING WATER FOR 2 WK AT BEGINNING OF STUDY): 11/23 (48%), 3/27 (11%), 77%, p<0.05
tumour outcome (control, treated, inhibition, significance) (Carcinogen: URETHANE, 51-79-6, Dose [Inhibitor]: 0.75% IN DIET 1/WK FOR 24 HR AFTER OVERNIGHT FAST TREATMENT REPEATED FOR 8 CONSECUTIVE WK BEGINNING 1 D AFTER CARCINOGEN, Route [Inhibitor]: ORAL, Species: MOUSE, Strain/Sex: STRAIN A/MALE, Target Tissue: Type of Lesion: LUNG: TYPE II ALVEOLAR CELL TUMORS, CLARA CELL TUMORS, Dose [Carcinogen]: 500 MG/KG ONCE AT 8 WK OF AGE): 100%, 100%, 0%, not significant
tumour outcome (control, treated, inhibition, significance) (Dose [Inhibitor]: 0.05% DIET FOR 2 WK STARTING 2 WK PRIOR TO START OF CARCINOGEN TREATMENT (STUDY DURATION: 48 WK), Route [Inhibitor]: ORAL, Species: RAT, Strain/Sex: F344/MALE, Target Tissue: Type of Lesion: LIVER: CELL TUMOR, Dose [Carcinogen]: 4 PPM IN DIET DAILY FOR 6 WK): 3/11 (27%), 1/15 (7%), 74%, not calculated
tumour outcome (control, treated, inhibition, significance) (Dose [Inhibitor]: 0.05% IN DIET FOR 2 WK STARTING 2 WK PRIOR TO INITIATION OF CARCINOGEN TREATMENT (STUDY DURATION: 48 WK), Route [Inhibitor]: ORAL, Species: RAT, Strain/Sex: F344/MALE, Target Tissue: Type of Lesion: LIVER: LIVER CELL TUMOR, Dose [Carcinogen]: 4 PPM IN DIET FOR 6 WK FOLLOWED BY 40 WK ON CONTROL DIET): 3/11 (27%), 1/12 (8%), 70%, not calculated
tumour outcome (control, treated, inhibition, significance) (Dose [Inhibitor]: 0.5% DIET FOR 2 WK STARTING 2 WK PRIOR TO START OF CARCINOGEN TREATMENT (STUDY DURATION: 48 WK), Route [Inhibitor]: ORAL, Species: RAT, Strain/Sex: F344/MALE, Target Tissue: Type of Lesion: LIVER: CELL TUMOR, Dose [Carcinogen]: 4 PPM IN DIET DAILY FOR 6 WK): 3/11 (27%), 0/15 (0%), 100%, not calculated
tumour outcome (control, treated, inhibition, significance) (Dose [Inhibitor]: 0.5% DIET FOR 2 WK STARTING POST CARCINOGEN TREATMENT AND FOLLOWED BY 40 WK ON CONTROL DIET (STUDY DURATION: 48 WK), Route [Inhibitor]: ORAL, Species: RAT, Strain/Sex: F344/MALE, Target Tissue: Type of Lesion: LIVER: CELL TUMOR, Dose [Carcinogen]: 4 PPM DIET DAILY FOR 6 WK): 3/11 (27%), 3/15 (20%), 26%, not significant
tumour outcome (control, treated, inhibition, significance) (Dose [Inhibitor]: 0.5% DIET FOR 6 WK ADMINISTERED CONCURRENTLY WITH CARCINOGEN TREATMENT FOLLOWED BY 42 WK ON CONTROL DIET (STUDY DURATION, Route [Inhibitor]: ORAL, Species: RAT, Strain/Sex: F344/MALE, Target Tissue: Type of Lesion: LIVER: CELL TUMOR, Dose [Carcinogen]: 4 PPM DIET DAILY FOR 6 WK): 3/11 (27%), 0/15 (0%), 100%, not calculated
tumour outcome (control, treated, inhibition, significance) (Dose [Inhibitor]: 0.5% IN DIET FOR 2 WK STARTING 2 WK PRIOR TO INITIATION OF CARCINOGEN (STUDY DURATION: 48 WK), Route [Inhibitor]: ORAL, Species: RAT, Strain/Sex: F344/MALE, Target Tissue: Type of Lesion: LIVER: LIVER CELL TUMOR, Dose [Carcinogen]: 4 PPM IN DIET FOR 6 WK FOLLOWED BY 40 WK ON CONTROL DIET): 3/11 (27%), 0/15 (0%), 100%, not calculated
tumour outcome (control, treated, inhibition, significance) (Dose [Inhibitor]: 0.5% IN DIET FOR 6 WK ADMINISTERED SIMULTANEOUSLY WITH CARCINOGEN FOLLOWED BY 42 WK ON CONTROL DIET (STUDY DURATION: 48, Route [Inhibitor]: ORAL, Species: RAT, Strain/Sex: F344/MALE, Target Tissue: Type of Lesion: LIVER: LIVER CELL TUMOR, Dose [Carcinogen]: 4 PPM IN DIET FOR 6 WK): 3/11 (20%), 0/9 (0%), 100%, not calculated
